Molecular target: T1, human corticosteroid-binding globulin (CBG; SERPINA6) (Homo sapiens, UniProt P08185)
T1 construct: RCL intact; no tag
T1 sequence (P08185 23-405): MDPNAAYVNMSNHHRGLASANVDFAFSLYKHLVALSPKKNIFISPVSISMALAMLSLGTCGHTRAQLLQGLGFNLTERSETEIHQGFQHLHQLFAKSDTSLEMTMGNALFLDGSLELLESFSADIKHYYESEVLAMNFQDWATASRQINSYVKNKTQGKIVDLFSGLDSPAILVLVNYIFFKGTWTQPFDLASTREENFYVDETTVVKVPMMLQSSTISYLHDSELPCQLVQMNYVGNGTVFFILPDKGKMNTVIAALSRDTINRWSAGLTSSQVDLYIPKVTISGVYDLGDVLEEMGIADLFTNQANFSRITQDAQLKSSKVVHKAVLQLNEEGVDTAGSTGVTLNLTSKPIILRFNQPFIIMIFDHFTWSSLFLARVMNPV
Assay: [3H]-corticosterone saturation binding, Scatchard analysis
Conditions: labelled compound; steroid-affinity purified plasma CBG, before 9G12 immunoprecipitation, ELISA-discordant sample; unreliable: unit doubtful, see left_out

C[C@]12C[C@H](O)[C@H]3[C@@H](CCC4=CC(=O)CC[C@@]43C)[C@@H]1CC[C@@H]2C(=O)CO [corticosterone]
Kd: 1.72 nM

Reference: PMC6347282, “Neutrophil elastase-cleaved corticosteroid-binding globulin is absent in human plasma” (The Journal of Endocrinology, 2018)
